Measured values from ChEMBL document CHEMBL4507306, “Data for DCP probe KISS1-305” (2021).
Active and inactive are the calls of the source. The rule behind the calls is not given here. Square brackets hold non-standard residues; d marks the D form. Peptide text beside a SMILES is read from it. Arg(Me) = CNC(=N)NCCC[C@H](N)C(=O)O; d3Pal = N[C@H](Cc1cccnc1)C(=O)O; d4Pal = N[C@H](Cc1ccncc1)C(=O)O; azaGly = NNC(=O)O

Tests used:
[1] = biological target: Histamine H1 receptor (Homo sapiens) (UniProt P35367); conditions: Compound concentration 1.0 uM
[2] = biological target: 5-hydroxytryptamine receptor 1A (Homo sapiens) (UniProt P08908); conditions: Compound concentration 1.0 uM
[3] = biological target: Beta-1 adrenergic receptor (Homo sapiens) (UniProt P08588); conditions: Compound concentration 1.0 uM
[4] = biological target: Sodium-dependent dopamine transporter (Homo sapiens) (UniProt Q01959); conditions: Compound concentration 1.0 uM
[5] = biological target: Alpha-2C adrenergic receptor (Homo sapiens) (UniProt P18825); conditions: Compound concentration 1.0 uM
[6] = biological target: T1, GABA-A receptor; anion channel (Rattus norvegicus) (UniProt O09028+P15431+P18506+P18508+P19969+P20236+P23574+P23576+P28471+P28473+P30191+P62813+P63079+P63138+Q91ZM7+Q9ES14); conditions: Compound concentration 1.0 uM
[7] = biological target: Kappa-type opioid receptor (Homo sapiens) (UniProt P41145); conditions: Compound concentration 1.0 uM
[8] = biological target: 5-hydroxytryptamine receptor 7 (Homo sapiens) (UniProt P34969); conditions: Compound concentration 1.0 uM
[9] = biological target: Sodium-dependent serotonin transporter (Homo sapiens) (UniProt P31645); conditions: Compound concentration 1.0 uM
[10] = biological target: Muscarinic acetylcholine receptor M5 (Homo sapiens) (UniProt P08912); conditions: Compound concentration 1.0 uM
[11] = biological target: Histamine H4 receptor (Homo sapiens) (UniProt Q9H3N8); conditions: Compound concentration 1.0 uM
[12] = biological target: 5-hydroxytryptamine receptor 1B (Homo sapiens) (UniProt P28222); conditions: Compound concentration 1.0 uM
[13] = biological target: Sigma non-opioid intracellular receptor 1 (Homo sapiens) (UniProt Q99720); conditions: Compound concentration 1.0 uM
[14] = biological target: Muscarinic acetylcholine receptor M2 (Homo sapiens) (UniProt P08172); conditions: Compound concentration 1.0 uM
[15] = biological target: 5-hydroxytryptamine receptor 1D (Homo sapiens) (UniProt P28221); conditions: Compound concentration 1.0 uM
[16] = biological target: Beta-3 adrenergic receptor (Homo sapiens) (UniProt P13945); conditions: Compound concentration 1.0 uM
[17] = biological target: Histamine H3 receptor (Homo sapiens) (UniProt Q9Y5N1); conditions: Compound concentration 1.0 uM
[18] = biological target: Delta-type opioid receptor (Homo sapiens, UniProt P41143); test: GPCRScan assay: inhibition of DOR; design: radioligand conc. used [nm] 1.0 – 2.0, parental cells stable HEK
[19] = biological target: D(1A) dopamine receptor (Homo sapiens) (UniProt P21728); conditions: Compound concentration 1.0 uM
[20] = biological target: Alpha-1D adrenergic receptor (Homo sapiens) (UniProt P25100); conditions: Compound concentration 1.0 uM
[21] = biological target: Muscarinic acetylcholine receptor M4 (Homo sapiens) (UniProt P08173); conditions: Compound concentration 1.0 uM
[22] = biological target: Muscarinic acetylcholine receptor M3 (Homo sapiens) (UniProt P20309); conditions: Compound concentration 1.0 uM
[23] = biological target: D(1B) dopamine receptor (Homo sapiens) (UniProt P21918); conditions: Compound concentration 1.0 uM
[24] = biological target: Alpha-2B adrenergic receptor (Homo sapiens) (UniProt P18089); conditions: Compound concentration 1.0 uM
[25] = biological target: Alpha-2A adrenergic receptor (Homo sapiens) (UniProt P08913); conditions: Compound concentration 1.0 uM
[26] = biological target: 5-hydroxytryptamine receptor 1E (Homo sapiens) (UniProt P28566); conditions: Compound concentration 1.0 uM
[27] = Cellular activity assay: GPR54 expressing cell growth
[28] = biological target: T1, GABA-A receptor; anion channel (Rattus norvegicus); conditions: Compound concentration 1.0 uM; remark: listed apart in the source
[29] = biological target: Sodium-dependent noradrenaline transporter (Homo sapiens) (UniProt P23975); conditions: Compound concentration 1.0 uM
[30] = species on record: Rattus norvegicus; conditions: Compound concentration 1.0 uM
[31] = biological target: Mu-type opioid receptor (Homo sapiens) (UniProt P35372); conditions: Compound concentration 1.0 uM
[32] = biological target: Histamine H2 receptor (Homo sapiens) (UniProt P25021); conditions: Compound concentration 1.0 uM
[33] = biological target: 5-hydroxytryptamine receptor 6 (Homo sapiens) (UniProt P50406); conditions: Compound concentration 1.0 uM
[34] = biological target: Alpha-1A adrenergic receptor (Homo sapiens) (UniProt P35348); conditions: Compound concentration 1.0 uM
[35] = biological target: D(2) dopamine receptor (Homo sapiens) (UniProt P14416); conditions: Compound concentration 1.0 uM
[36] = biological target: D(3) dopamine receptor (Homo sapiens) (UniProt P35462); conditions: Compound concentration 1.0 uM
[37] = biological target: 5-hydroxytryptamine receptor 2B (Homo sapiens) (UniProt P41595); conditions: Compound concentration 1.0 uM
[38] = biological target: 5-hydroxytryptamine receptor 2C (Homo sapiens) (UniProt P28335); conditions: Compound concentration 1.0 uM
[39] = biological target: Sigma intracellular receptor 2 (Homo sapiens) (UniProt Q5BJF2); conditions: Compound concentration 1.0 uM
[40] = biological target: Muscarinic acetylcholine receptor M1 (Homo sapiens) (UniProt P11229); conditions: Compound concentration 1.0 uM
[41] = biological target: Beta-2 adrenergic receptor (Homo sapiens) (UniProt P07550); conditions: Compound concentration 1.0 uM
[42] = biological target: 5-hydroxytryptamine receptor 5A (Homo sapiens) (UniProt P47898); conditions: Compound concentration 1.0 uM
[43] = biological target: Alpha-1B adrenergic receptor (Homo sapiens) (UniProt P35368); conditions: Compound concentration 1.0 uM
[44] = biological target: D(4) dopamine receptor (Homo sapiens) (UniProt P21917); conditions: Compound concentration 1.0 uM
[45] = biological target: 5-hydroxytryptamine receptor 3A (Homo sapiens) (UniProt P46098); conditions: Compound concentration 1.0 uM
[46] = biological target: KiSS-1 receptor (Homo sapiens, UniProt Q969F8); test: Agonist activity for hGPR54 (C-terminal ethyl amide)
[47] = biological target: 5-hydroxytryptamine receptor 2A (Homo sapiens) (UniProt P28223); conditions: Compound concentration 1.0 uM

Chain of Sodium-dependent dopamine transporter (Homo sapiens) (Q01959 whole entry): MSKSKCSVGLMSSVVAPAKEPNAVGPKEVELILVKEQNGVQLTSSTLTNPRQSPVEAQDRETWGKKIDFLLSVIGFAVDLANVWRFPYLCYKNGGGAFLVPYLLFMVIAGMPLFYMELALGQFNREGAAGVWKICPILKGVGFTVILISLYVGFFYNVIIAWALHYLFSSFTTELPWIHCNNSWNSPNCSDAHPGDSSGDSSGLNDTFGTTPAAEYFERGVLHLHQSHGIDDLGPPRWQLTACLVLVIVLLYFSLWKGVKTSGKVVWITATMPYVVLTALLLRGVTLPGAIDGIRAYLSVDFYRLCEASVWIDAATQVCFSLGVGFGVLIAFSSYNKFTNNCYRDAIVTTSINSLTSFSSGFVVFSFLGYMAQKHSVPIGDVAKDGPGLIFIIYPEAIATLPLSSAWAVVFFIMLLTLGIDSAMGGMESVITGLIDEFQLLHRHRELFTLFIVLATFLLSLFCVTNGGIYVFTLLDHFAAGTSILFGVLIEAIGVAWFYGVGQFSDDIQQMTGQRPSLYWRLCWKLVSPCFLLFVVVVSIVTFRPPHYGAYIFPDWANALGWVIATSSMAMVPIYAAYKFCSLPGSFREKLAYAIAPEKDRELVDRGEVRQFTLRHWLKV
Chain of Muscarinic acetylcholine receptor M4 (Homo sapiens) (P08173 whole entry): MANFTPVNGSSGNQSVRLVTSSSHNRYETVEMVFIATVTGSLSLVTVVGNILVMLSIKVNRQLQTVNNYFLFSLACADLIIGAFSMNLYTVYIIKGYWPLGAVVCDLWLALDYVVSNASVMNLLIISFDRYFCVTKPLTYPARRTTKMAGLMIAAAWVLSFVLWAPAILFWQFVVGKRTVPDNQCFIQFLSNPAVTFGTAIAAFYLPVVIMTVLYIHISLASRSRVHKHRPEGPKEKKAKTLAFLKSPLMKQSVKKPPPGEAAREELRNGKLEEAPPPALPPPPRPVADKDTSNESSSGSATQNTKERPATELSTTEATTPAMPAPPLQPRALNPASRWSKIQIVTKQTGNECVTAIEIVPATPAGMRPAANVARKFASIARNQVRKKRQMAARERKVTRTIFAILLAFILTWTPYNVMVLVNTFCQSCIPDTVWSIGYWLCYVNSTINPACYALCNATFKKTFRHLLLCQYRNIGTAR
Chain of Beta-2 adrenergic receptor (Homo sapiens) (P07550 whole entry, looked up): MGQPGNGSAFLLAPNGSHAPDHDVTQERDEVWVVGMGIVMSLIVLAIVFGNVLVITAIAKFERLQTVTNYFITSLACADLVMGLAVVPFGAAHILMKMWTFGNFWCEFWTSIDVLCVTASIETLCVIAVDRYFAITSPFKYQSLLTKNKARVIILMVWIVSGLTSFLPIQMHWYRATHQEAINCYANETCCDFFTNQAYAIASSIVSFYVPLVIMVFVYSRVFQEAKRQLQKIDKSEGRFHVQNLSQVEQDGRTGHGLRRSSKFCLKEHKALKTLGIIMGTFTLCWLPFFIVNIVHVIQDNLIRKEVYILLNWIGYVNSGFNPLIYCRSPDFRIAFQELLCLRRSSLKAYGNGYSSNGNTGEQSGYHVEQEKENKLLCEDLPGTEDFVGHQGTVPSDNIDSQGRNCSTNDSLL
Chain of D(3) dopamine receptor (Homo sapiens) (P35462 whole entry): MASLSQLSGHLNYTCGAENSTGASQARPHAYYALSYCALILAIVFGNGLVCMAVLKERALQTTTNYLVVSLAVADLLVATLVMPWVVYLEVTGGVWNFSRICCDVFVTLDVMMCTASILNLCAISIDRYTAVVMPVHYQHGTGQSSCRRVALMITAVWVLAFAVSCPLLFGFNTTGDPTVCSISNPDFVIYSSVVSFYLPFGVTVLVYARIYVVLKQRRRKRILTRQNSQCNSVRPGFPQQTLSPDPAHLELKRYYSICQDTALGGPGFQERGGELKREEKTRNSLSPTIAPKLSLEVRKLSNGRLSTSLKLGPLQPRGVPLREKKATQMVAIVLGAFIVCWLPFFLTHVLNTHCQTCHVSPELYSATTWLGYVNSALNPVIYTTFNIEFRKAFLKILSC
Chain of D(2) dopamine receptor (Homo sapiens) (P14416 whole entry): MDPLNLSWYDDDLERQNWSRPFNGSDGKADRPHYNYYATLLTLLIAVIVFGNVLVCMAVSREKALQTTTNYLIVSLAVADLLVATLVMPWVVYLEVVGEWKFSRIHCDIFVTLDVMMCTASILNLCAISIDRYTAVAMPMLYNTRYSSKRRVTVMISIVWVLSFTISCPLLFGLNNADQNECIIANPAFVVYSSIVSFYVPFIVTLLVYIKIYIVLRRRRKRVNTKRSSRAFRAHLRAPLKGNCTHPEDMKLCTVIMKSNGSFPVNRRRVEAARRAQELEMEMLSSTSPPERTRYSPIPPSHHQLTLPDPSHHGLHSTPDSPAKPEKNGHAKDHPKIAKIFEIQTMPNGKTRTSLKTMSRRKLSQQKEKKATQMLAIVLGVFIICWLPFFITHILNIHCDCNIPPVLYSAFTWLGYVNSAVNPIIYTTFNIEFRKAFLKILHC
Chain of 5-hydroxytryptamine receptor 7 (Homo sapiens) (P34969 whole entry): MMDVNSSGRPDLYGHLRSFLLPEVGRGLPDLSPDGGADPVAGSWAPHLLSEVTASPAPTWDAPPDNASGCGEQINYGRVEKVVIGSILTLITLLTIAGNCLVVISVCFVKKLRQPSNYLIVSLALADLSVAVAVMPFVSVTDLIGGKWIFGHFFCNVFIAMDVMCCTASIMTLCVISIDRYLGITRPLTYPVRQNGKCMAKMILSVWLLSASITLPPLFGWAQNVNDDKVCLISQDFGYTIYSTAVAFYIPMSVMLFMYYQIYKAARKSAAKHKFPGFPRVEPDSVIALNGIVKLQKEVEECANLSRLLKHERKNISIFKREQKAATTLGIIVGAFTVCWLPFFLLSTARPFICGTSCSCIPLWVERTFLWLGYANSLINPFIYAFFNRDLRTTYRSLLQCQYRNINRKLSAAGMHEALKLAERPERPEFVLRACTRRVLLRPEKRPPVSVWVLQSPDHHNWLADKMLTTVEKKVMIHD
Chain of 5-hydroxytryptamine receptor 2C (Homo sapiens) (P28335 whole entry): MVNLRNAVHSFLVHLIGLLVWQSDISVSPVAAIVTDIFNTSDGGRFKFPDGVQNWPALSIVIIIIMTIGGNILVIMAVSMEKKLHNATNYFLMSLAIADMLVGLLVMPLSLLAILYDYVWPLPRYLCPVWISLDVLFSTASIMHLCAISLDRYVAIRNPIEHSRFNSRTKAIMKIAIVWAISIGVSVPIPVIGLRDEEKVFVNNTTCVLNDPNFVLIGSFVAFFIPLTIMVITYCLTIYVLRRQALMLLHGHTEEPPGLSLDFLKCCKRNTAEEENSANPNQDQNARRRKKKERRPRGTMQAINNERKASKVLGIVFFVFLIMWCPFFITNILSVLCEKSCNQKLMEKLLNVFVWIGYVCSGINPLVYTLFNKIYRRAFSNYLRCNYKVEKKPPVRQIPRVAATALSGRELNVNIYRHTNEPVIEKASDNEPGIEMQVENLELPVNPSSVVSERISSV
Chain of Beta-1 adrenergic receptor (Homo sapiens) (P08588 whole entry, looked up): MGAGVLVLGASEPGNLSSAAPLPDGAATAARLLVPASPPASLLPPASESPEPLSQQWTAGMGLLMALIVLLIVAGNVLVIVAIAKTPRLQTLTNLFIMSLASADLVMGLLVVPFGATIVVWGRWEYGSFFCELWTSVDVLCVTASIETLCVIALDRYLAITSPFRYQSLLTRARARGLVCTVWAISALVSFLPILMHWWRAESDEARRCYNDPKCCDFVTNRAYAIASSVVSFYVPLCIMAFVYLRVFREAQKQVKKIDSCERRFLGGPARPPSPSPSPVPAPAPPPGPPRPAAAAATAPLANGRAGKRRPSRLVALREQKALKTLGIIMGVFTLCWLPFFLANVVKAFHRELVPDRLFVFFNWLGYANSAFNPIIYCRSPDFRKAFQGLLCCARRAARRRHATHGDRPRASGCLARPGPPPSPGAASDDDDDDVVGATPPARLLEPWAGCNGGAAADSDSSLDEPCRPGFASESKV
Chain of 5-hydroxytryptamine receptor 1A (Homo sapiens) (P08908 whole entry): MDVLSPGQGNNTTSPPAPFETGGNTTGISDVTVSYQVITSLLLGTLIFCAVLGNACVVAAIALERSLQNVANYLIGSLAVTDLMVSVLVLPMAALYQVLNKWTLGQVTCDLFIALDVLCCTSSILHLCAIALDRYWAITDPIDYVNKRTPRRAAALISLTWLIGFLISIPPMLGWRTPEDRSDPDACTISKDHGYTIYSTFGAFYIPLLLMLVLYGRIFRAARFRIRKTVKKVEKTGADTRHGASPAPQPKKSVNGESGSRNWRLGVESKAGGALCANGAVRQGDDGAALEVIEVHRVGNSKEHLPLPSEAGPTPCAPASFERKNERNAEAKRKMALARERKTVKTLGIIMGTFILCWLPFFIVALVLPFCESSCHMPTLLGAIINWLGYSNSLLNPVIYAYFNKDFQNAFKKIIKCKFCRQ
Chain of Sodium-dependent serotonin transporter (Homo sapiens) (P31645 whole entry, looked up): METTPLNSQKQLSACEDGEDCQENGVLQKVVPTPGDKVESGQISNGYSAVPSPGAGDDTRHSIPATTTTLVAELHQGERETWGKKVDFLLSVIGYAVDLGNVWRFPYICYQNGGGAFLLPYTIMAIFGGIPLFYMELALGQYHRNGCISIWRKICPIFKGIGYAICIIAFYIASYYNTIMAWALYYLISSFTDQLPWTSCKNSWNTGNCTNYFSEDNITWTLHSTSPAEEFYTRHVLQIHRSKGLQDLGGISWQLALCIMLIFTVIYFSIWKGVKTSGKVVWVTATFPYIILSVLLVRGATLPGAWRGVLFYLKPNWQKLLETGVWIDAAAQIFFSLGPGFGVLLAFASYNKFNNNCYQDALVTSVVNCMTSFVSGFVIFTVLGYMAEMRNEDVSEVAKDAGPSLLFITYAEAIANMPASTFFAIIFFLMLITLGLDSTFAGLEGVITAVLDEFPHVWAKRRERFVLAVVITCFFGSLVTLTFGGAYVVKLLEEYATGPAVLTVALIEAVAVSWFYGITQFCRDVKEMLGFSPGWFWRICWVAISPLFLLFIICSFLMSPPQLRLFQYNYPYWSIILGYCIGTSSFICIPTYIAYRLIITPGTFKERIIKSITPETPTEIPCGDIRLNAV

Work on CNC(=N)NCCC[C@H](NC(=O)[C@H](CC(C)C)NC(=O)NNC(=O)[C@H](Cc1ccccc1)NC(=O)[C@H](CO)NC(=O)[C@H](CC(N)=O)NC(=O)[C@@H](Cc1ccncc1)NC(=O)[C@H](N)Cc1ccc(O)cc1)C(=O)N[C@@H](Cc1ccccc1)C(N)=O [KISS1-305] (H-[dY][d4Pal]NSF[azaGly]L[Arg(Me)]F-NH2) yielded an inhibition [1] of 19.9%, an inhibition [2] of 18.5% and an inhibition [3] of 0.557%. It also gave an inhibition [4] of 12%, an inhibition [5] of 4.19% and an inhibition [6] of 13.6%. It also gave an inhibition [7] of -6.31%, an inhibition [8] of -2.33% and an inhibition [9] of 8.84%. It also gave an inhibition [10] of 14.9%, an inhibition [11] of 10.4% and an inhibition [12] of 29.3%. The inhibition [13] was 3.72%, the inhibition [14] was 25.1% and the inhibition [15] was 10.4%. For the same compound, the inhibition [16] was 7.09%, the inhibition [17] was 43.3% and the Ki ([18]; read-out: Ki) was 47.5 nM. The Ki ([18]; read-out: pKi (converted)) was 44.7 nM, the inhibition [19] was -7.58% and the inhibition [20] was 13.9%. It also gave an inhibition [21] of 13.8%, an inhibition [22] of 10.7% and an inhibition [23] of 0.512%. For the same compound, the inhibition [24] was 17.6%, the inhibition [25] was 8.6% and the inhibition [26] was 24.1%. The IC50 [27] was 8.94 nM (active), the inhibition [28] was 1.39% and the inhibition [29] was 5.4%. For the same compound, the inhibition [30] was 31.4%, the inhibition [31] was -4.62% and the inhibition [32] was 4.38%. The inhibition [33] was 4.93%, the inhibition [34] was -9.06% and the inhibition [35] was 0.859%. The inhibition [36] was -8.85%, the inhibition [37] was 1.13% and the inhibition [38] was 12.8%. For the same compound, the inhibition [39] was -5.31%, the inhibition [40] was 2.17% and the inhibition [41] was 1.39%. For the same compound, the inhibition [42] was 20.1% and the inhibition [43] was -7.65%.

Compound CNC(=N)NCCC[C@H](NC(=O)[C@H](CC(C)C)NC(=O)NNC(=O)[C@H](Cc1ccccc1)NC(=O)[C@H](CO)NC(=O)[C@H](CC(N)=O)NC(=O)[C@@H](Cc1cccnc1)NC(=O)[C@H](N)Cc1ccc(O)cc1)C(=O)NCC(N)=O [KISS1-543] (H-[dY][d3Pal]NSF[azaGly]L[Arg(Me)]G-NH2) has an inhibition [2] of 30.9%, an inhibition [3] of 3.41% and an inhibition [4] of 10.4%. For the same compound, the inhibition [5] was -0.48%, the inhibition [6] was 12.3% and the inhibition [7] was -5.75%. For the same compound, the inhibition [8] was -6.69%, the inhibition [44] was -9.83% and the inhibition [9] was -0.408%. The inhibition [10] was 12.3%, the inhibition [11] was -3.39% and the inhibition [12] was 31%. For the same compound, the inhibition [13] was 0.205%, the inhibition [14] was 40.7% and the inhibition [15] was 12.4%. It also gave an inhibition [16] of 2.7%, an inhibition [45] of -8.29% and an inhibition [17] of 12.5%. It also gave an inhibition [19] of -0.599%, an inhibition [20] of 9.13% and an inhibition [21] of 18.5%. The inhibition [22] was 24.7%, the inhibition [23] was 29.2% and the EC50 [46] was > 1000 nM (not active). It also gave an inhibition [24] of 14.5%, an inhibition [25] of 10.2% and an inhibition [26] of 27.9%. It also gave an inhibition [28] of 15.5%, an inhibition [29] of -1.33% and an inhibition [30] of 15.6%. The inhibition [31] was -7.85%, the inhibition [32] was 3.31% and the inhibition [33] was -0.513%. It also gave an inhibition [47] of 16.9%, an inhibition [35] of 9.68% and an inhibition [36] of -3.9%. It also gave an inhibition [37] of 11.3%, an inhibition [38] of -2.67% and an inhibition [39] of -8.74%. It also gave an inhibition [40] of 15.1%, an inhibition [41] of -2.89% and an inhibition [42] of 16.3%. For the same compound, the inhibition [43] was -2.08%.
